Literature values in patent US5700484A, “Sustained release microparticulate caffeine formulation” (Nestec S.A., priority 1996, dated 1997).

Settings: 350 mg caffeine oral, aqueous solution

## Cn1c(=O)c2c(ncn2C)n(C)c1=O [caffeine, 1,3,7-trimethyl xanthine]
  maximum plasma level: approximately 8.3 μg/ml
